PubChem BioAssay (NCI)
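Step 1: Grow cells in 96-well plates. Step 2: Expose to compound for 48 hours at 5 concentrations. Step 3: Interpolate endpoints linearly; if unreached, use highest concentration. At the GI50, growth is halved. Definition used: TGI = concentration required for complete inhibition of growth.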

Assays:
Test in all cases: NCI anticancer screen, dose series, 48 h
SNB-19 CNS = tested on: SNB-19 CNS
OVCAR-3 ovarian = tested on: OVCAR-3 ovarian
UACC-257 melanoma = tested on: UACC-257 melanoma
HT29 colon = tested on: HT29 colon
SF-295 CNS = tested on: SF-295 CNS
UACC-62 melanoma = tested on: UACC-62 melanoma
CCRF-CEM leukemia = tested on: CCRF-CEM leukemia
CAKI-1 renal = tested on: CAKI-1 renal
RXF 393 renal = tested on: RXF 393 renal
T-47D breast = tested on: T-47D breast

Structure (SMILES)	TGI (SNB-19 CNS)	TGI (OVCAR-3 ovarian)	TGI (UACC-257 melanoma)	TGI (HT29 colon)	TGI (SF-295 CNS)	TGI (UACC-62 melanoma)	TGI (CCRF-CEM leukemia)	TGI (CAKI-1 renal)	TGI (RXF 393 renal)	GI50 (SNB-19 CNS)	GI50 (OVCAR-3 ovarian)	GI50 (UACC-257 melanoma)	GI50 (HT29 colon)	GI50 (SF-295 CNS)	GI50 (RXF 393 renal)	GI50 (UACC-62 melanoma)	GI50 (CCRF-CEM leukemia)	GI50 (CAKI-1 renal)	GI50 (T-47D breast)	TGI (T-47D breast)
Cc1ccc(NC(=O)CCC(=O)C(C#N)c2ccccc2)cc1C (stereo not drawn)	> 100 µM	> 100 µM	> 100 µM	> 100 µM	> 100 µM	> 100 µM	> 100 µM	> 100 µM	–	–	–	–	–	–	–	–	–	–	–	–
C[n+]1c(N)n(C(=O)OCc2ccccc2)c(=O)c2c1ncn2C(=O)OCc1ccccc1	> 100 µM	> 100 µM	> 100 µM	> 100 µM	> 100 µM	> 100 µM	> 100 µM	> 100 µM	–	–	–	–	–	–	–	–	–	–	–	–
NCP(=O)(O)OCC(=O)O	> 100 µM	> 100 µM	> 100 µM	> 100 µM	> 100 µM	> 100 µM	> 100 µM	> 100 µM	> 100 µM	–	–	–	–	–	–	–	–	–	–	–
COc1ccc2c(c1)OCCC1=C2SCC2(C)CCN=C12 (stereo not drawn)	> 100 µM	> 100 µM	–	> 100 µM	> 100 µM	> 100 µM	> 100 µM	–	> 100 µM	–	–	–	–	–	–	–	–	–	–	–
O=C(/C(=C/c1ccccc1)c1ccccc1)N1c2ccccc2CC1c1c[nH]c2ccccc12 (stereo not drawn)	> 100 µM	89.6 µM	> 100 µM	> 100 µM	> 100 µM	> 100 µM	> 100 µM	> 100 µM	> 100 µM	–	–	–	–	–	–	–	–	–	–	–
COC(=O)Cc1nc2ccccc2o1	> 100 µM	> 100 µM	> 100 µM	> 100 µM	> 100 µM	49.3 µM	> 100 µM	> 100 µM	> 100 µM	–	–	–	–	–	–	–	–	–	–	–
CN(C)CC1CCCC/C1=N/OC(=O)c1ccc(Cl)c(Cl)c1 (stereo not drawn)	–	> 100 µM	> 100 µM	> 100 µM	> 100 µM	> 100 µM	> 100 µM	> 100 µM	> 100 µM	–	–	–	–	–	–	–	–	–	–	–
CCOC(=O)/N=c1/nc(N(C)C)ss1	> 100 µM	–	> 100 µM	> 100 µM	> 100 µM	> 100 µM	> 100 µM	> 100 µM	> 100 µM	–	–	–	–	–	–	–	–	–	–	–
NS(=O)(=O)c1ccc(NC(=O)COC(=O)c2cccc3c(=O)c4ccccc4[nH]c23)cc1	45.2 µM	47.6 µM	> 100 µM	> 100 µM	52.6 µM	34.7 µM	> 89.5 µM	> 100 µM	42.3 µM	–	–	–	–	–	–	–	–	–	–	–
COc1ccc(/C=N/N=C(\[O-])c2ccncc2)cc1F.COc1ccc(/C=N\N=C(/[O-])c2ccncc2)cc1F.[Cu+2]	35.7 µM	82.9 µM	40.2 µM	69 µM	26.5 µM	52.8 µM	68.9 µM	> 100 µM	32.9 µM	17.8 µM	27.3 µM	17.9 µM	24.1 µM	11.2 µM	18.9 µM	23.8 µM	22 µM	38.6 µM	–	–
COc1c(N2CCN(Cn3c(O)c(N=NC(=O)c4ccncc4)c4cc(F)ccc43)C(C)C2)c(F)cc2c(=O)c(C(=O)O)cn(C3CC3)c12 (stereo not drawn)	> 50 µM	23.8 µM	> 50 µM	> 50 µM	> 50 µM	> 50 µM	–	> 50 µM	20.6 µM	32.5 µM	10.5 µM	> 50 µM	> 50 µM	23.9 µM	8.44 µM	> 50 µM	–	> 50 µM	–	–
COc1ccc(C(=O)O/N=C2/CCC/C2=C\c2ccccc2)cc1	> 100 µM	> 100 µM	> 100 µM	> 100 µM	> 100 µM	> 100 µM	> 100 µM	> 100 µM	> 100 µM	–	–	–	–	–	–	–	–	–	–	–
Cn1ccnc1C[N-]Cc1nccn1C.O=[N+]([O-])[O-].O=[N+]([O-])[O-].[Cu+2]	> 100 µM	> 100 µM	–	> 100 µM	> 100 µM	> 100 µM	> 100 µM	–	> 100 µM	> 100 µM	> 100 µM	–	> 100 µM	> 100 µM	> 100 µM	25.8 µM	> 100 µM	–	–	–
COc1ccc2nc3cccc(C(=O)NCCN(C)C)c3nc2c1	19.6 µM	5.89 µM	7.74 µM	6.63 µM	> 22.8 µM	–	–	> 20.9 µM	3.21 µM	–	–	–	–	–	–	–	–	–	–	–
CN(C)CCNc1nc(-c2cccs2)cc(-c2cccs2)n1	–	48.7 µM	24.2 µM	22.2 µM	28.2 µM	37.4 µM	24.1 µM	–	28.6 µM	–	–	–	–	–	–	–	–	–	–	–
COc1ccc(C2=NOP(c3ccccc3)(c3ccccc3)(c3ccccc3)C2)cc1	> 100 µM	> 85.5 µM	99.2 µM	> 48.5 µM	61.2 µM	53.2 µM	39.6 µM	> 64 µM	97.4 µM	–	–	–	–	–	–	–	–	–	–	–

Structure (SMILES)	TGI (SNB-19 CNS)	TGI (OVCAR-3 ovarian)	TGI (UACC-257 melanoma)	TGI (HT29 colon)	TGI (SF-295 CNS)	TGI (UACC-62 melanoma)	TGI (CCRF-CEM leukemia)	TGI (CAKI-1 renal)	TGI (RXF 393 renal)	GI50 (SNB-19 CNS)	GI50 (OVCAR-3 ovarian)	GI50 (UACC-257 melanoma)	GI50 (HT29 colon)	GI50 (SF-295 CNS)	GI50 (RXF 393 renal)	GI50 (UACC-62 melanoma)	GI50 (CCRF-CEM leukemia)	GI50 (CAKI-1 renal)	GI50 (T-47D breast)	TGI (T-47D breast)
C[N+](C)(C)CC1CCCC/C1=N\O (stereo not drawn)	> 100 µM	> 100 µM	> 100 µM	> 100 µM	> 100 µM	> 100 µM	> 100 µM	–	> 100 µM	–	–	–	–	–	–	–	–	–	–	–
C#CCN(C)C(=O)N(CC#C)N=O	> 100 µM	> 100 µM	> 100 µM	> 100 µM	> 100 µM	> 100 µM	> 100 µM	–	> 100 µM	–	–	–	–	–	–	–	–	–	–	–
Nc1nc(N)c(-c2ccccc2)c(CCC(=O)Nc2ccc(Cl)cc2)n1	> 100 µM	> 100 µM	> 100 µM	> 100 µM	> 100 µM	> 100 µM	> 100 µM	> 100 µM	–	–	–	–	–	–	–	–	–	–	–	–
CC(=O)O[C@H]1C=CC23OC(=O)[C@]1(C)[C@H]2[C@H](C(=O)O)C12CC(=O)[C@@](CO)(CC[C@H]13)C2	> 100 µM	> 100 µM	> 100 µM	> 100 µM	> 100 µM	> 100 µM	> 100 µM	> 100 µM	> 100 µM	–	–	–	–	–	–	–	–	–	–	–
OCC(O)C(OC1OC(CO)C(O)C(O)C1O)c1nn(-c2ccccc2)c2nc3cc(Cl)ccc3nc12 (stereo not drawn)	> 100 µM	> 100 µM	> 100 µM	> 100 µM	> 100 µM	> 100 µM	> 100 µM	–	> 100 µM	–	–	–	–	–	–	–	–	–	–	–
Cc1ccc(S(=O)OC23CC4CC(CC(C4)C2)C3)cc1 (stereo not drawn)	> 100 µM	> 100 µM	> 100 µM	> 100 µM	> 100 µM	> 100 µM	–	> 100 µM	> 100 µM	–	–	–	–	–	–	–	–	–	–	–
CC1=C(C(=O)Nc2ccccc2)C(c2ccc(C(C)C)cc2)C(C(=O)Nc2ccccc2)=C(C)N1	> 100 µM	56.3 µM	–	29.9 µM	> 100 µM	35 µM	75.2 µM	> 100 µM	27.6 µM	–	–	–	–	–	–	–	–	–	–	–
Cn1cc(NC(=O)c2cc(NC(=O)CCCCCCC(=O)Nc3cc(C(=O)Nc4cc(C(=O)NCCC(=N)N)n(C)c4)n(C)c3)cn2C)cc1C(=O)NCCC(=N)N	> 100 µM	50.6 µM	5.98 µM	> 100 µM	> 100 µM	20.8 µM	> 100 µM	89.7 µM	31.4 µM	–	–	–	–	–	–	–	–	–	–	–
Cc1nnc(-c2ccc(-c3nc4ccccc4o3)cc2)o1	43.1 µM	> 100 µM	90.7 µM	–	> 100 µM	> 100 µM	–	> 100 µM	–	20.7 µM	> 100 µM	34.7 µM	–	40.1 µM	–	36.8 µM	–	> 100 µM	> 100 µM	> 100 µM
CCOC(=O)NC(=O)c1c[nH]c(=O)[nH]c1=O	> 100 µM	> 100 µM	> 100 µM	> 100 µM	> 100 µM	> 100 µM	> 100 µM	> 100 µM	–	–	–	–	–	–	–	–	–	–	–	–
COC(=O)C1CC(C(=O)OC)c2nc3cc(C)c(C)cc3nc21 (stereo not drawn)	> 100 µM	> 100 µM	> 100 µM	> 100 µM	> 100 µM	> 100 µM	> 100 µM	> 100 µM	–	–	–	–	–	–	–	–	–	–	–	–
Nc1ccc(C(=O)N/C(=C\c2cccc([N+](=O)[O-])c2)c2nc3c4c(ccc3[nH]2)C(=O)c2ccccc2C4=O)cc1	> 100 µM	> 100 µM	> 100 µM	> 100 µM	> 100 µM	> 100 µM	> 100 µM	> 100 µM	57.7 µM	–	–	–	–	–	–	–	–	–	–	–
CCOC(=O)/C(C#N)=C/Nc1ccc(-c2nc3ccccc3[nH]2)cc1	> 100 µM	51.6 µM	> 100 µM	–	76.8 µM	62.4 µM	–	74.1 µM	> 100 µM	36.5 µM	20.4 µM	62.1 µM	–	27.4 µM	76.7 µM	18.7 µM	–	26.6 µM	33.9 µM	> 100 µM
COc1cc([C@@H]2c3cc4c(cc3C[C@H]3COC(=O)[C@@H]32)OCO4)cc2c1OCO2	–	< 0.01 µM	–	< 0.01 µM	< 0.01 µM	> 100 µM	97.7 µM	–	> 100 µM	–	–	–	–	–	–	–	–	–	–	–
C1C[OH+]CC[OH+]CC[OH+]CC[OH+]CC[OH+]CC[OH+]1.[Cl-].[Nb+5]	> 100 µM	> 100 µM	> 100 µM	> 100 µM	> 100 µM	> 100 µM	–	> 100 µM	> 100 µM	> 100 µM	> 100 µM	> 100 µM	> 100 µM	> 100 µM	85.3 µM	> 100 µM	–	> 100 µM	–	–
